Experimental data taken from ChEMBL document CHEMBL1201862, “PubChem BioAssay data set” (2004).
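Exposure lasted 48 hours, with cells grown in 96-well plates and compounds tested at five concentrations. The concentration for 50% growth inhibition is given as GI50.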 Calls of active or inactive are those of the source. No stated cut-off is given here; in the data, active = GI50 up to about 1.1 µM and inactive = higher.

Key:
Assay in all cases: inhibition of tumour cell growth, NCI panel, 48 h
ACHN = test system: ACHN
CAKI-1 = test system: CAKI-1
HCC 2998 = test system: HCC 2998
HCT-15 = test system: HCT-15
HL-60 = test system: HL-60
HT-29 = test system: HT-29
K562 = test system: K562
MCF7 = test system: MCF7
MOLT-4 = test system: MOLT-4
NCI-H460 = test system: NCI-H460
OVCAR-8 = test system: OVCAR-8
SF-295 = test system: SF-295
SF-539 = test system: SF-539
SK-MEL-2 = test system: SK-MEL-2
SNB-19 = test system: SNB-19
SNB-75 = test system: SNB-75
UACC-257 = test system: UACC-257
UACC-62 = test system: UACC-62
SK-OV-3 = test system: SK-OV-3

SMILES | GI50 (ACHN) | GI50 (CAKI-1) | GI50 (HCC 2998) | GI50 (HCT-15) | GI50 (HL-60) | GI50 (HT-29) | GI50 (K562) | GI50 (MCF7) | GI50 (MOLT-4) | GI50 (NCI-H460) | GI50 (OVCAR-8) | GI50 (SF-295) | GI50 (SF-539) | GI50 (SK-MEL-2) | GI50 (SNB-19) | GI50 (SNB-75) | GI50 (UACC-257) | GI50 (UACC-62) | GI50 (SK-OV-3)
O=c1oc2ccccc2cc1P(=O)(O)O | > 100 µM (inactive) | > 100 µM (inactive) | > 100 µM (inactive) | > 100 µM | > 100 µM (inactive) | > 100 µM (inactive) | > 100 µM (inactive) | > 100 µM (inactive) | > 100 µM (inactive) | > 100 µM (inactive) | > 100 µM (inactive) | > 100 µM (inactive) | > 100 µM (inactive) | > 100 µM (inactive) | > 100 µM (inactive) | > 100 µM (inactive) | > 100 µM (inactive) | > 100 µM (inactive) | 
CC(C)(C)C1=NC(=P(c2ccccc2)(c2ccccc2)c2ccccc2)C(=O)O1 | > 100 µM (inactive) | > 100 µM (inactive) |  |  | > 100 µM (inactive) | > 100 µM (inactive) | > 100 µM (inactive) | > 100 µM (inactive) | > 100 µM (inactive) |  | > 100 µM (inactive) | > 100 µM (inactive) |  | > 100 µM (inactive) | > 100 µM (inactive) | 6.21 µM (inactive) | > 100 µM (inactive) | > 100 µM (inactive) | > 100 µM (inactive)
CCOC(=O)C(C)c1nc2cc(N3CCN(C)CC3)c(F)cc2[nH]c1=O (stereo unspecified) | > 100 µM (inactive) | > 100 µM (inactive) |  | > 100 µM | > 100 µM (inactive) | > 100 µM (inactive) | > 100 µM (inactive) | > 100 µM (inactive) | > 100 µM (inactive) | > 100 µM (inactive) | > 100 µM (inactive) | > 100 µM (inactive) | > 100 µM (inactive) | > 100 µM (inactive) | > 100 µM (inactive) | > 100 µM (inactive) | > 100 µM (inactive) | > 100 µM (inactive) | > 100 µM (inactive)
[N-]=[N+]=Nc1cc(=O)n2c3c(cccc13)CCC2 | > 100 µM (inactive) |  | > 100 µM (inactive) | > 100 µM | > 100 µM (inactive) | > 100 µM (inactive) | > 100 µM (inactive) | > 100 µM (inactive) | > 100 µM (inactive) | > 100 µM (inactive) | > 100 µM (inactive) | > 100 µM (inactive) | > 100 µM (inactive) |  |  | > 100 µM (inactive) | > 100 µM (inactive) | > 100 µM (inactive) | 
O=C(O)c1cc(CCc2cc(O)ccc2O)ccc1O | > 100 µM (inactive) | > 100 µM (inactive) |  | > 100 µM | 30.6 µM (inactive) | > 100 µM (inactive) | 37.2 µM (inactive) | > 100 µM (inactive) | 56.6 µM (inactive) | > 100 µM (inactive) | > 100 µM (inactive) | > 100 µM (inactive) | > 100 µM (inactive) | > 100 µM (inactive) |  | > 100 µM (inactive) | > 100 µM (inactive) | > 100 µM (inactive) | > 100 µM (inactive)
CN1CCC/C1=C1/C(=O)N(c2ccccc2)N=C1c1ccc[nH]1 | > 100 µM (inactive) | > 100 µM (inactive) | > 100 µM (inactive) | > 100 µM | > 100 µM (inactive) |  | > 100 µM (inactive) | > 100 µM (inactive) | > 100 µM (inactive) | > 100 µM (inactive) | > 100 µM (inactive) | > 100 µM (inactive) |  | > 100 µM (inactive) | > 100 µM (inactive) | > 100 µM (inactive) | > 100 µM (inactive) | > 100 µM (inactive) | 
CCOC(=O)Cn1nc2ccc(Nc3c(C)[n+]([O-])c4cc(F)c(OCC)cc4[n+]3[O-])cc2n1 | 22.4 µM (inactive) | > 100 µM (inactive) |  | > 100 µM | > 100 µM (inactive) | > 100 µM (inactive) | > 100 µM (inactive) | > 100 µM (inactive) | > 100 µM (inactive) | > 100 µM (inactive) | > 100 µM (inactive) | 44.2 µM (inactive) | 83 µM (inactive) | 16.8 µM (inactive) |  |  | > 100 µM (inactive) |  | 56.4 µM (inactive)
O=C1CSC(c2ccc([N+](=O)[O-])cc2)N1c1nc(-c2ccc3c(c2)CCCC3)cs1 (stereo unspecified) | > 100 µM (inactive) | > 100 µM (inactive) | > 100 µM (inactive) | > 100 µM | > 100 µM (inactive) | > 100 µM (inactive) | > 100 µM (inactive) | 31.7 µM (inactive) | > 100 µM (inactive) | > 100 µM (inactive) | > 100 µM (inactive) | > 100 µM (inactive) | 27.2 µM (inactive) | 39.5 µM (inactive) | > 100 µM (inactive) | 86.9 µM (inactive) | > 100 µM (inactive) | 63.1 µM (inactive) | 
O=C1C(NCCc2cc(Cl)c(O)c(Cl)c2)=CC(=O)c2[nH]cnc21 | 47 µM (inactive) |  | 38.8 µM (inactive) | 39.1 µM | 17.4 µM (inactive) | 40.4 µM (inactive) | 26 µM (inactive) | 26.9 µM (inactive) | 24.3 µM (inactive) | 26.5 µM (inactive) | 32.2 µM (inactive) | 18 µM (inactive) | 39.5 µM (inactive) | 19.2 µM (inactive) | 33.7 µM (inactive) |  | 26 µM (inactive) | 18.8 µM (inactive) | 
CCOC(=O)c1c(NC(=O)c2ccc(Br)cc2)sc2c1CCCC2 | > 100 µM (inactive) | > 100 µM (inactive) |  |  | > 100 µM (inactive) | > 100 µM (inactive) | > 100 µM (inactive) | > 100 µM (inactive) | > 100 µM (inactive) | 0.182 µM (active) | > 100 µM (inactive) | > 100 µM (inactive) | > 100 µM (inactive) | > 100 µM (inactive) | > 100 µM (inactive) |  | > 100 µM (inactive) | > 100 µM (inactive) | 
CC1(C)S[C@H](CN)N[C@H]1C(=O)OC(c1ccccc1)c1ccccc1 | 84.3 µM (inactive) | 34.4 µM (inactive) | 18.6 µM (inactive) | 36.1 µM | 16.7 µM (inactive) | 33.7 µM (inactive) | 22.9 µM (inactive) | 61.9 µM (inactive) | 24.3 µM (inactive) |  | 57.9 µM (inactive) | 41.7 µM (inactive) |  | 27.7 µM (inactive) |  | 84.3 µM (inactive) | 17.4 µM (inactive) | 22.9 µM (inactive) | 78.3 µM (inactive)
CC(=C/C=C/C=C(C)\C=C\C=C(\C)C(=O)O)/C=C/C=C(/C)C(=O)O | > 100 µM (inactive) | > 100 µM (inactive) |  | > 100 µM | 25.5 µM (inactive) | > 100 µM (inactive) | > 100 µM (inactive) | > 100 µM (inactive) | > 100 µM (inactive) | > 100 µM (inactive) | > 100 µM (inactive) | > 100 µM (inactive) | > 100 µM (inactive) | > 100 µM (inactive) |  | > 100 µM (inactive) | > 100 µM (inactive) | > 100 µM (inactive) | > 100 µM (inactive)
